Test results from ChEMBL document CHEMBL1201862, “PubChem BioAssay data set” (2004).
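Grown in 96-well plates, cells were treated for 48 hours with each compound at five concentrations. Insufficient inhibition: endpoint recorded as highest concentration tested. GI50 is the concentration that inhibits growth by half.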 The source made the active and inactive calls. Rule as the data show it: active = GI50 up to about 1.1 µM and inactive = higher.

How the values were obtained:
Test in all cases: DTP human tumour cell line panel, 48 h
[1] = tested on: A549
[2] = tested on: MDA-MB-231
[3] = tested on: Malme-3M
[4] = tested on: RPMI-8226
[5] = tested on: MDA-N
[6] = tested on: HCT-15
[7] = tested on: HCC 2998
[8] = tested on: EKVX
[9] = tested on: ACHN
[10] = tested on: NCI-H460
[11] = tested on: HOP-92
[12] = tested on: MCF7
[13] = tested on: 786-0
[14] = tested on: LOX IMVI
[15] = tested on: MOLT-4
[16] = tested on: KM12
[17] = tested on: HOP-62
[18] = tested on: OVCAR-4
[19] = tested on: K562
[20] = tested on: NCI/ADR-RES
[21] = tested on: T47D
[22] = tested on: OVCAR-8
[23] = tested on: UACC-62
[24] = tested on: MDA-MB-435
[25] = tested on: Hs-578T
[26] = tested on: OVCAR-5
[27] = tested on: SF-268
[28] = tested on: SN12C
[29] = tested on: SK-MEL-5
[30] = tested on: A498
[31] = tested on: HL-60
[32] = tested on: HCT-116
[33] = tested on: CAKI-1
[34] = tested on: SNB-75
[35] = tested on: UACC-257
[36] = tested on: SK-OV-3
[37] = tested on: NCI-H23
[38] = tested on: OVCAR-3
[39] = tested on: COLO 205
[40] = tested on: UO-31
[41] = tested on: SK-MEL-28
[42] = tested on: RXF 393
[43] = tested on: CCRF-CEM
[44] = tested on: DU-145
[45] = tested on: BT-549
[46] = tested on: PC-3
[47] = tested on: SR
[48] = tested on: SW-620
[49] = tested on: HT-29
[50] = tested on: NCI-H226
[51] = tested on: SF-295
[52] = tested on: NCI-H522
[53] = tested on: U-251
[54] = tested on: SF-539
[55] = tested on: TK-10
[56] = tested on: IGROV-1
[57] = tested on: M14
[58] = tested on: SK-MEL-2
[59] = tested on: SNB-19

Cc1sc2nc3n(c(=O)c2c1C)N=C(c1ccc([N+](=O)[O-])cc1)CS3
GI50 [1]: > 100 µM (inactive)
GI50 [2]: > 100 µM (inactive)
GI50 [3]: > 100 µM (inactive)
GI50 [4]: > 100 µM (inactive)
GI50 [5]: > 100 µM (inactive)
GI50 [6]: > 100 µM
GI50 [7]: > 100 µM (inactive)
GI50 [8]: > 100 µM (inactive)
GI50 [9]: > 100 µM (inactive)
GI50 [10]: > 100 µM (inactive)
GI50 [11]: > 100 µM (inactive)
GI50 [12]: > 100 µM (inactive)
GI50 [13]: > 100 µM (inactive)
GI50 [14]: > 100 µM (inactive)
GI50 [15]: > 100 µM (inactive)
GI50 [16]: > 100 µM (inactive)
GI50 [17]: 61.9 µM (inactive)
GI50 [18]: > 10 µM (inactive)
GI50 [19]: > 100 µM (inactive)
GI50 [20]: > 100 µM (inactive)
GI50 [21]: > 100 µM (inactive)
GI50 [22]: > 100 µM (inactive)
GI50 [23]: > 100 µM (inactive)
GI50 [24]: > 100 µM (inactive)
GI50 [25]: 97.5 µM (inactive)
GI50 [26]: > 100 µM (inactive)
GI50 [27]: > 100 µM (inactive)
GI50 [28]: > 100 µM (inactive)
GI50 [29]: > 100 µM (inactive)
GI50 [30]: > 100 µM (inactive)
GI50 [31]: > 100 µM (inactive)
GI50 [32]: > 100 µM (inactive)
GI50 [33]: > 100 µM (inactive)
GI50 [34]: 83.8 µM (inactive)
GI50 [35]: > 100 µM (inactive)
GI50 [36]: > 100 µM (inactive)
GI50 [37]: > 100 µM (inactive)
GI50 [38]: > 100 µM (inactive)
GI50 [39]: > 100 µM (inactive)
GI50 [40]: > 100 µM (inactive)
GI50 [41]: > 100 µM (inactive)
GI50 [42]: > 100 µM (inactive)
GI50 [43]: > 100 µM (inactive)
GI50 [44]: > 100 µM (inactive)
GI50 [45]: 56.5 µM (inactive)
GI50 [46]: > 100 µM (inactive)
GI50 [47]: > 100 µM (inactive)
GI50 [48]: > 100 µM (inactive)
GI50 [49]: > 100 µM (inactive)
GI50 [50]: > 100 µM (inactive)
GI50 [51]: > 100 µM (inactive)
GI50 [52]: > 100 µM (inactive)
GI50 [53]: > 100 µM (inactive)
GI50 [54]: > 100 µM (inactive)

Oc1ccc(SCc2cc(O)c(O)c(O)c2)cc1
GI50 [1]: 49.5 µM (inactive)
GI50 [2]: 36.4 µM (inactive)
GI50 [3]: 61.5 µM (inactive)
GI50 [55]: > 100 µM (inactive)
GI50 [56]: 20.5 µM (inactive)
GI50 [4]: 26.7 µM (inactive)
GI50 [5]: > 10 µM (inactive)
GI50 [6]: 39.9 µM
GI50 [7]: > 10 µM (inactive)
GI50 [8]: > 100 µM (inactive)
GI50 [9]: 47.9 µM (inactive)
GI50 [10]: 19.1 µM (inactive)
GI50 [11]: > 100 µM (inactive)
GI50 [12]: 20.4 µM (inactive)
GI50 [13]: 37 µM (inactive)
GI50 [14]: 35.9 µM (inactive)
GI50 [15]: 27 µM (inactive)
GI50 [16]: 20.3 µM (inactive)
GI50 [17]: 29 µM (inactive)
GI50 [19]: 13.2 µM (inactive)
GI50 [57]: 17.9 µM (inactive)
GI50 [58]: 26.1 µM (inactive)
GI50 [20]: 19.7 µM (inactive)
GI50 [21]: > 100 µM (inactive)
GI50 [22]: 21.6 µM (inactive)
GI50 [23]: 16.9 µM (inactive)
GI50 [24]: 22.4 µM (inactive)
GI50 [25]: 77.8 µM (inactive)
GI50 [26]: 22.4 µM (inactive)
GI50 [27]: > 100 µM (inactive)
GI50 [28]: 26.4 µM (inactive)
GI50 [29]: 18 µM (inactive)
GI50 [30]: 40.5 µM (inactive)
GI50 [31]: 34.4 µM (inactive)
GI50 [32]: 17.1 µM (inactive)
GI50 [33]: 39.6 µM (inactive)
GI50 [34]: 46.5 µM (inactive)
GI50 [35]: > 100 µM (inactive)
GI50 [36]: 65.9 µM (inactive)
GI50 [37]: 41.4 µM (inactive)
GI50 [38]: 39.4 µM (inactive)
GI50 [39]: 18.7 µM (inactive)
GI50 [40]: 24.8 µM (inactive)
GI50 [41]: 92.9 µM (inactive)
GI50 [42]: 89.3 µM (inactive)
GI50 [43]: 19.3 µM (inactive)
GI50 [44]: 56.5 µM (inactive)
GI50 [45]: 25.6 µM (inactive)
GI50 [46]: 40.3 µM (inactive)
GI50 [47]: 25.5 µM (inactive)
GI50 [48]: 36.5 µM (inactive)
GI50 [59]: 59.4 µM (inactive)
GI50 [49]: 23.5 µM (inactive)
GI50 [50]: 23.7 µM (inactive)
GI50 [51]: 15.8 µM (inactive)
GI50 [52]: 22 µM (inactive)
GI50 [53]: 37.1 µM (inactive)
GI50 [54]: 82.8 µM (inactive)

COC1CC(OC2OC(CO)C(O)C(O)C2O)/C(=C\C#N)C(O)C1OC (centres undefined)
GI50 [1]: > 100 µM (inactive)
GI50 [2]: > 100 µM (inactive)
GI50 [3]: > 100 µM (inactive)
GI50 [55]: > 100 µM (inactive)
GI50 [56]: > 100 µM (inactive)
GI50 [4]: > 100 µM (inactive)
GI50 [5]: > 100 µM (inactive)
GI50 [6]: > 100 µM
GI50 [7]: > 100 µM (inactive)
GI50 [8]: > 100 µM (inactive)
GI50 [9]: > 100 µM (inactive)
GI50 [10]: > 100 µM (inactive)
GI50 [11]: > 100 µM (inactive)
GI50 [12]: > 100 µM (inactive)
GI50 [13]: > 100 µM (inactive)
GI50 [14]: > 100 µM (inactive)
GI50 [15]: > 100 µM (inactive)
GI50 [16]: > 100 µM (inactive)
GI50 [17]: > 100 µM (inactive)
GI50 [18]: > 100 µM (inactive)
GI50 [57]: > 100 µM (inactive)
GI50 [58]: > 100 µM (inactive)
GI50 [20]: > 100 µM (inactive)
GI50 [21]: > 100 µM (inactive)
GI50 [22]: > 100 µM (inactive)
GI50 [23]: > 100 µM (inactive)
GI50 [24]: > 100 µM (inactive)
GI50 [25]: > 100 µM (inactive)
GI50 [26]: > 100 µM (inactive)
GI50 [27]: > 100 µM (inactive)
GI50 [28]: > 100 µM (inactive)
GI50 [29]: > 100 µM (inactive)
GI50 [30]: > 100 µM (inactive)
GI50 [31]: > 100 µM (inactive)
GI50 [32]: > 100 µM (inactive)
GI50 [33]: > 100 µM (inactive)
GI50 [35]: > 100 µM (inactive)
GI50 [36]: > 100 µM (inactive)
GI50 [37]: > 100 µM (inactive)
GI50 [38]: > 100 µM (inactive)
GI50 [39]: > 100 µM (inactive)
GI50 [40]: > 100 µM (inactive)
GI50 [41]: > 100 µM (inactive)
GI50 [42]: > 100 µM (inactive)
GI50 [43]: > 100 µM (inactive)
GI50 [44]: > 100 µM (inactive)
GI50 [45]: > 100 µM (inactive)
GI50 [46]: > 100 µM (inactive)
GI50 [47]: > 100 µM (inactive)
GI50 [48]: > 100 µM (inactive)
GI50 [59]: > 100 µM (inactive)
GI50 [49]: > 100 µM (inactive)
GI50 [50]: > 100 µM (inactive)
GI50 [51]: > 100 µM (inactive)
GI50 [52]: > 100 µM (inactive)
GI50 [53]: > 100 µM (inactive)
GI50 [54]: > 100 µM (inactive)
